These are literature values, as cited in US20250064971A1, “SUSTAINED RELEASE FORMULATIONS AND METHODS OF USE THEREOF” (VIRGINIA COMMONWEALTH UNIVERSITY, priority 2022, published 2025).

For the series, the target named is hERG (Homo sapiens, UniProt Q12809). Conditions: compared to LAAM.
Sequence of hERG (Q12809 whole entry): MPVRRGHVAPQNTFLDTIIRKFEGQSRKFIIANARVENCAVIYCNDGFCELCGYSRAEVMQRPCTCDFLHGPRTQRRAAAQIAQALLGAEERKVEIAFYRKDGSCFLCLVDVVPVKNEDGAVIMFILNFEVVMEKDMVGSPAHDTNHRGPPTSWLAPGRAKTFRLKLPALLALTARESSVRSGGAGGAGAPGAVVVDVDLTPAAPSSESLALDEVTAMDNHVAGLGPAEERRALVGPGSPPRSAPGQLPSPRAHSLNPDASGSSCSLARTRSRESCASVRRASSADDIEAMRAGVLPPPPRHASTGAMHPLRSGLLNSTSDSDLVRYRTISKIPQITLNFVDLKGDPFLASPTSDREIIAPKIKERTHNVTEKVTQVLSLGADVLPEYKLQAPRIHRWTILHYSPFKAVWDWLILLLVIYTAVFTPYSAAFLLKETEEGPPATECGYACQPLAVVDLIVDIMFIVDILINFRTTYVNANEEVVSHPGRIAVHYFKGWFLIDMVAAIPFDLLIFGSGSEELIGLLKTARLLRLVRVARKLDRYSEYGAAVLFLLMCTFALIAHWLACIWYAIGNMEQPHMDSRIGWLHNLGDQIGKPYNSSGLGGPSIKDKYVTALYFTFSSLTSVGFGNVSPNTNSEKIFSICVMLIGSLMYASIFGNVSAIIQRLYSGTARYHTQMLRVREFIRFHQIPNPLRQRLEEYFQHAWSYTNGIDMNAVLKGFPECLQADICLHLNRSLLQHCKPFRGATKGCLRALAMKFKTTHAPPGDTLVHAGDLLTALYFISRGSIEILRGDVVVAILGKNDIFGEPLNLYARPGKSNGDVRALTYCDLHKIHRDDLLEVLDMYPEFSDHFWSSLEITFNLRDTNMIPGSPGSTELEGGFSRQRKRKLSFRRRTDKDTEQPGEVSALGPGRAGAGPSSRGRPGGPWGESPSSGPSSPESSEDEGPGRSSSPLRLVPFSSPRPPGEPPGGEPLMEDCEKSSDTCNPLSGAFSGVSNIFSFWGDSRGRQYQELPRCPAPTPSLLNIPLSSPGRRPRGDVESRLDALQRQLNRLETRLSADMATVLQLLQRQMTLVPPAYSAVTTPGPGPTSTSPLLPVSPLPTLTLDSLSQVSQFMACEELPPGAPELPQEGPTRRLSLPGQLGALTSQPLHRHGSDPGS

Regarding `CCC(OC(C)=O)C(CC(C)NC)(c1ccccc1)c1ccccc1` (stereo not shown) [nor-LAAM], the “hERG inhibition IC50 (comparison in words)” value is “higher hERG inhibition IC50 than LAAM”.
